Measurements: US8779141B2, “Viral inhibitors” (Gilead Sciences, Inc., priority 2002, dated 2014)
Converted amounts (≈) assume the structure as drawn.

Tests used:
BVDV-1 (strain PE515) = test: Anti-BVDV assay, virus-induced cytopathic effect in MDBK cells (MTS); assay type: cell-based, Bovine Viral Diarrhea Virus; conditions: Bovine viral diarrhea virus isolates and strains; Table 9; reduction of virus induced cytopathic effect in MDBK cells by 50%; BVDV strain PE515; mean of 2-5 determinations; read-out: EC50
Experimental: Madin-Darbey Bovine Kidney (MDBK) cells were maintained in Dulbecco's modified Eagle medium (DMEM) supplemented with BVDV-free 5% fetal calf serum (DMEME-FCS) at 37° C. in a humidified, 5% CO2 atmosphere. BVDV-1 (strain PE515) was used to assess the antiviral activity in MDBK cells. Vero cells were maintained in the same way as MDBK cells. Vero cells were infected with Coxsackie B3 virus (strain Nancy).
Ninety-six-well cell culture plates were seeded with MDBK cells in DMEM-FCS so that cells reached 24 hr later confluency. Then medium was removed and serial 5-fold dilutions of the test compounds were added in a total volume of 100 ul, after which the virus inoculum (100 ul) was added to each well. […] Uninfected cells and cells receiving virus without compound were included in each assay plate. After 5 days, medium was removed and 90 μl of DMEM-FCS and 10 ul of MTS/PMS solution (Promega) was added to each well. Following a 2 hr incubation period at 37° C. the optical density of the wells was read at 498 nm in a microplate reader.

[1] = Cytostatic effect on exponentially growing MDBK cells (MTS); assay type: cell-based, Bovine; conditions: bovine; Table 9; reduction of growth of exponentially growing MDBK cells by 50%; mean of 2-5 determinations
Experimental: Madin-Darbey Bovine Kidney (MDBK) cells were maintained in Dulbecco's modified Eagle medium (DMEM) supplemented with BVDV-free 5% fetal calf serum ([…]) at 37° C. in a humidified, 5% CO2 atmosphere. […] Vero cells were maintained in the same way as MDBK cells. […] The effect of the drugs on exponentially growing MDBK cells was assessed as follows. Cells were seeded at a density of 5000 cell/well in 96 well plates in MEM medium (Gibco) supplemented with 10% fetal calf serum, 2 mM L-glutamine (Life Technologies) and bicarbonate (Life Technologies). […] Cultures were then again further incubated for 3 days after which the effect on cell growth was quantified by means of the MTS method (Promega).

Structure (SMILES) | EC50 (BVDV-1 (strain PE515)) [µg/mL] | CC50 at 3 days [1] [µg/mL]
Clc1ccc(Cn2ccc3nc(-c4ccccc4)nc-3c2)cc1 [GPJN-9, 5-[(4-Chlorophenyl)methyl]-2-phenyl-5H-imidazo[4,5-c]pyridine] | 0.049 (≈ 0.153 µM) | –
CC(c1ccccc1)n1ccc2nc(-c3ccccc3)nc-2c1 (stereo not drawn) [GPJN-33, 2-Phenyl-5-(1-phenylethyl)-5H-imidazo[4,5-c]pyridine] | 0.2 (≈ 0.668 µM) | 70 (≈ 234 µM)
c1ccc(-c2nc3ccn(Cc4ccncc4)cc-3n2)cc1 [GPJN-31, 2-Phenyl-5-(4-pyridinylmethyl)-5H-imidazo[4,5-c]pyridine] | 0.455 (≈ 1.59 µM) | > 100
Fc1ccc(Cn2ccc3nc(-c4ccccc4)nc-3c2)cc1 [GPJN-19, 5-[(4-Fluorophenyl)methyl]-2-phenyl-5H-imidazo[4,5-c]pyridine] | 0.013 (≈ 0.0429 µM) | 40 (≈ 132 µM)
Brc1ccc(Cn2ccc3nc(-c4cccs4)nc-3c2)cc1 [GPJN-53, 5-[(4-Bromophenyl)methyl]-2-(2-thienyl)-5H-imidazo[4,5-c]pyridine] | 0.033 (≈ 0.0891 µM) | 66 (≈ 178 µM)
c1ccc(-c2nc3ccn(CC4CCCCC4)cc-3n2)cc1 [GPJN-37, 5-(Cyclohexylmethyl)-2-phenyl-5H-imidazo[4,5-c]pyridine] | 0.161 (≈ 0.553 µM) | 22 (≈ 75.5 µM)
Fc1cccc(F)c1Cn1ccc2nc(-c3ccccc3)nc-2c1 [GPJN-3, 5-[(2,6-Difluorophenyl)methyl]-2-phenyl-5H-imidazo[4,5-c]pyridine] | 0.06 (≈ 0.187 µM) | 60 (≈ 187 µM)
N#Cc1ccc(Cn2ccc3nc(-c4ccccc4)nc-3c2)cc1 [GPJN-23, 4-[(2-Phenyl-5H-imidazo[4,5-c]pyridin-5-yl)methyl]-benzonitrile] | 0.014 (≈ 0.0451 µM) | 46 (≈ 148 µM)
Ic1ccc(Cn2ccc3nc(-c4ccccc4)nc-3c2)cc1 [GPJN-68, 5-[(4-Iodophenyl)methyl]-2-phenyl-5H-imidazo[4,5-c]pyridine] | 0.026 (≈ 0.0632 µM) | 17 (≈ 41.3 µM)
Cl.Clc1ccc(Cn2ccc3nc(-c4ccccc4)nc-3c2)cc1 [GPJN-9 xHCl, 5-[(4-Chlorophenyl)methyl]-2-phenyl-5H-imidazo[4,5-c]pyridine hydrochloride] | 0.016 | –
Clc1ccccc1Cn1ccc2nc(-c3ccccc3)nc-2c1 [GPJN-7, 5-[(2-Chlorophenyl)methyl]-2-phenyl-5H-imidazo[4,5-c]pyridine] | 0.042 (≈ 0.131 µM) | 22 (≈ 68.8 µM)
Brc1ccc(Cn2ccc3nc(-c4ccccc4)nc-3c2)cc1 [GPJN-22, 5-[(4-Bromophenyl)methyl]-2-phenyl-5H-imidazo[4,5-c]pyridine] | 0.029 (≈ 0.0796 µM) | 13 (≈ 35.7 µM)
Brc1cccc(-c2nc3ccn(Cc4ccc(I)cc4)cc-3n2)c1 [GPJN-79, 2-(3-Bromophenyl)-5-[(4-iodophenyl)methyl]-5H-imidazo[4,5-c]pyridine] | 0.083 (≈ 0.169 µM) | > 100
Brc1ccc(Cn2ccc3nc(-c4ccncc4)nc-3c2)cc1 [GPJN-49, 5-[(4-Bromophenyl)methyl]-2-(4-pyridinyl)-5H-imidazo[4,5-c]pyridine] | 0.18 (≈ 0.493 µM) | 62 (≈ 170 µM)
Fc1ccc(Cn2ccc3nc(-c4c(F)cccc4F)nc-3c2)cc1 [GPJN-39, 2-(2,6-Difluorophenyl)-5-[(4-fluorophenyl)methyl]-5H-imidazo[4,5-c]pyridine] | 0.245 (≈ 0.722 µM) | > 100
c1ccc(-c2nc3ccn(Cc4cccnc4)cc-3n2)cc1 [GPJN-35, 2-Phenyl-5-(3-pyridinylmethyl)-5H-imidazo[4,5-c]pyridine] | 0.365 (≈ 1.27 µM) | > 100
c1ccc(CCCn2ccc3nc(-c4ccccc4)nc-3c2)cc1 [GPJN-14, 2-Phenyl-5-(3-phenylpropyl)-5H-imidazo[4,5-c]pyridine] | 0.07 (≈ 0.223 µM) | 40 (≈ 128 µM)
Brc1ccc(Cn2ccc3nc(-c4ccc5ccccc5c4)nc-3c2)cc1 [GPJN-63, 5-[(4-Bromophenyl)methyl]-2-(2-naphthalenyl)-5H-imidazo[4,5-c]pyridine] | 0.0042 (≈ 0.0101 µM) | 4.3 (≈ 10.4 µM)
c1ccc(-c2nc3ccn(Cc4ccccn4)cc-3n2)cc1 [GPJN-34, 2-Phenyl-5-(2-pyridinylmethyl)-5H-imidazo[4,5-c]pyridine] | 0.865 (≈ 3.02 µM) | > 100
COc1ccccc1Cn1ccc2nc(-c3ccccc3)nc-2c1 [GPJN-11, 5-[(2-Methoxyphenyl)methyl]-2-phenyl-5H-imidazo[4,5-c]pyridine] | 0.032 (≈ 0.101 µM) | 36 (≈ 114 µM)

Structure (SMILES) | EC50 (BVDV-1 (strain PE515)) [µg/mL] | CC50 at 3 days [1] [µg/mL]
Fc1ccc(Cn2ccc3nc(-c4cc(F)ccc4F)nc-3c2)c(F)c1 [GPC-13, 2-(2,5-Difluorophenyl)-5-[(2,4-difluorophenyl)methyl]-5H-imidazo[4,5-c]pyridine] | 0.067 (≈ 0.188 µM) | > 100
FC(F)(F)c1ccc(Cn2ccc3nc(-c4ccccc4)nc-3c2)cc1 [GPJN-24, 2-Phenyl-5-[[4-(trifluoromethyl)phenyl]methyl]-5H-imidazo[4,5-c]pyridine] | 0.04 (≈ 0.113 µM) | 21 (≈ 59.4 µM)
Clc1ccc(Cn2ccc3nc(-c4cccc(Br)c4)nc-3c2)cc1 [GPJN-80, 2-(3-Bromophenyl)-5-[(4-chlorophenyl)methyl]-5H-imidazo[4,5-c]pyridine] | 0.18 (≈ 0.451 µM) | > 100
C(=Cc1ccccc1)Cn1ccc2nc(-c3ccccc3)nc-2c1 [GPJN-75, 2-Phenyl-5-(3-phenyl-2-propenyl)-5H-imidazo[4,5-c]pyridine] | 0.018 (≈ 0.0578 µM) | 31.7 (≈ 102 µM)
c1ccc(CCCCn2ccc3nc(-c4ccccc4)nc-3c2)cc1 [GPJN-27, 2-Phenyl-5-(4-phenylbutyl)-5H-imidazo[4,5-c]pyridine] | 0.945 (≈ 2.89 µM) | > 46
Cc1ccccc1Cn1ccc2nc(-c3ccccc3)nc-2c1 [GPJN-20, 5-[(2-Methylphenyl)methyl]-2-phenyl-5H-imidazo[4,5-c]pyridine] | 0.165 (≈ 0.551 µM) | 28 (≈ 93.5 µM)
Fc1cccc(F)c1-c1nc2ccn(Cc3ccccc3)cc-2n1 [GPJN-1, 5-Benzyl-2-(2,6-difluorophenyl)-5H-imidazo[4,5-c]pyridine] | 0.24 (≈ 0.747 µM) | > 83.3
Clc1ccccc1-c1nc2ccn(Cc3ccc(Br)cc3)cc-2n1 [GPJN-54, 5-[(4-Bromophenyl)methyl]-2-(2-chlorophenyl)-5H-imidazo[4,5-c]pyridine] | 0.1 (≈ 0.251 µM) | 35 (≈ 87.8 µM)
c1ccc(Cn2ccc3nc(-c4ccccc4)nc-3c2)cc1 [GPJN-4, 5-Benzyl-2-phenyl-5H-imidazo[4,5-c]pyridine] | 0.04 (≈ 0.14 µM) | 46 (≈ 161 µM)
Fc1ccccc1Cn1ccc2nc(-c3ccccc3)nc-2c1 [GPJN-17, 5-[(2-Fluorophenyl)methyl]-2-phenyl-5H-imidazo[4,5-c]pyridine] | 0.097 (≈ 0.32 µM) | 50 (≈ 165 µM)
Cc1ccc(Cn2ccc3nc(-c4ccccc4)nc-3c2)cc1 [GPJN-15, 5-[(4-Methylphenyl)methyl]-2-phenyl-5H-imidazo[4,5-c]pyridine] | 0.009 (≈ 0.0301 µM) | 29 (≈ 96.9 µM)
Fc1cccc(Cn2ccc3nc(-c4ccccc4)nc-3c2)c1 [GPJN-18, 5-[(3-Fluorophenyl)methyl]-2-phenyl-5H-imidazo[4,5-c]pyridine] | 0.019 (≈ 0.0626 µM) | 55 (≈ 181 µM)
Clc1ccc(Cn2ccc3nc(-c4ccccc4)nc-3c2)s1 [GPJN-25, 5-[(5-Chloro-2-thienyl)methyl]-2-phenyl-5H-imidazo[4,5-c]pyridine] | 0.009 (≈ 0.0276 µM) | 36 (≈ 110 µM)
COc1cccc(Cn2ccc3nc(-c4ccccc4)nc-3c2)c1 [GPJN-12, 5-[(3-Methoxyphenyl)methyl]-2-phenyl-5H-imidazo[4,5-c]pyridine] | 0.059 (≈ 0.187 µM) | 56 (≈ 178 µM)
c1ccc(-c2nc3ccn(Cc4ccc5ccccc5c4)cc-3n2)cc1 [GPJN-26, 5-(2-Naphthalenylmethyl)-2-phenyl-5H-imidazo[4,5-c]pyridine] | 0.041 (≈ 0.122 µM) | > 100
CC(C)CCn1ccc2nc(-c3ccccc3)nc-2c1 [GPJN-38, 5-(3-Methylbutyl)-2-phenyl-5H-imidazo[4,5-c]pyridine] | 0.235 (≈ 0.886 µM) | 50 (≈ 188 µM)
Fc1cc(F)c(Cn2ccc3nc(-c4c(F)cccc4F)nc-3c2)c(F)c1 [GPJN-41, 2-(2,6-Difluorophenyl)-5-[(2,4,6-trifluorophenyl)methyl]-5H-imidazo[4,5-c]pyridine] | 0.58 (≈ 1.55 µM) | > 100
c1ccc(OCCn2ccc3nc(-c4ccccc4)nc-3c2)cc1 [GPJN-73, 5-(2-Phenoxyethyl)-2-phenyl-5H-imidazo[4,5-c]pyridine] | 0.017 (≈ 0.0539 µM) | > 100
CC(C)=CCn1ccc2nc(-c3ccccc3)nc-2c1 [GPJN-28, 5-(3-Methyl-2-butenyl)-2-phenyl-5H-imidazo[4,5-c]pyridine] | 0.325 (≈ 1.23 µM) | > 75
Clc1cccc(-c2nc3ccn(Cc4ccc(Br)cc4)cc-3n2)c1 [GPJN-55, 5-[(4-Bromophenyl)methyl]-2-(3-chlorophenyl)-5H-imidazo[4,5-c]pyridine] | 0.06 (≈ 0.15 µM) | > 100
